Reference: ChEMBL document CHEMBL4665901, “Novel CDK2 Inhibitors for Treating Cancer” (ACS Med Chem Lett, 2020)
pKi: −log10 of the molar value.

Biological target: Cyclin-dependent kinase 2/cyclin E1 (Homo sapiens, UniProt P24941)
Experiment: Inhibition of recombinant full length wild-type CDK2/Cyclin E1 (unknown origin) expressed in baculovirus expression system assessed as […] using 5-FAM-QSPKKG-CONH2 peptide as substrate preincubated with enzyme for 15 mins followed by further incubation with ATP for 45 mins by fluorescence-based microfluidic mobility shift assay

| SMILES | pKi |
| --- | --- |
| COc1ccc(CC(=O)Nc2cc([C@@H]3CC[C@H](OC(=O)N4CCC4(C)C)C3)[nH]n2)cn1 | 9.92 |
| Cc1ncc(CC(=O)Nc2cc([C@H]3CC[C@@H](OC(=O)N4C[C@@H](C#N)[C@@H]4C)C3)[nH]n2)s1 (single isomer, unassigned) | 9.82 |
| COc1ccc(CC(=O)Nc2cc([C@H]3CC[C@@H](OC(=O)N4C[C@@H](C#N)[C@@H]4C)C3)[nH]n2)cn1 (single isomer, unassigned) | 9.77 |
| CCC(CO)CNC(=O)O[C@@H]1CC[C@H](c2cc(NC(=O)Cc3ccc(OC)nc3)n[nH]2)C1 (single isomer, unassigned) | 9.11 |
